Data set [1] in a line: Maximum body weight loss (toxicity indicator) in xenograft-bearing nude mice. The protocol: (§1) Xenograft tumors were established by s.c. implantation of 5×10^6 786-O human renal cell carcinoma (RCC), 5×10^6 A375 melanoma, or 1×10^6 H460 human non-small cell lung cancer (NSCLC) cells into the flanks of nude mice, or 5×10^6 PLC/PRF/5 hepatocellular carcinoma (HCC) into the flanks of Severe Combined Immunodeficient (SCID) mice. Tumor hypoxia was detected by pimonidazole immunostaining, and morphometric analysis was performed to determine the hypoxic fraction. When tumor size was approximately 100-150 mm^3, sunitinib or sorafenib was administered daily. Sunitinib at 20, 40, or 80 mg/kg was administered p.o. daily for 3 weeks (QDx21). For all of these studies except the study utilizing the A375 melanoma model, TH-302 administration began one week after antiangiogenic agent administration. In the A375 melanoma model, TH-302 administration was begun on the same day as sorafenib administration. TH-302 at 50 mg/kg was administered i.p. daily for 5 days on and 2 days off (QDx5) for 2 weeks. Sunitinib was administered 4 hours before TH-302 on days when both agents were given.
(§2) In another study, sunitinib was administered for 5 weeks, and TH-302 was administered for 4 weeks, beginning one week after sunitinib therapy was initiated, in accordance with the methods of the invention.

The test system of data set [2] is 786-O human renal cell carcinoma (RCC) xenograft. Put plainly: Tumor growth inhibition in 786-O RCC xenograft. The class given is in vivo, nude mice.
For data set [3] the test system is unchanged. Description: Tumor growth inhibition in 786-O RCC xenograft. The class given is in vivo, nude mice. The protocol:
as §1
The following tables summarize the data obtained in the studies described above.
The source holds these as a separate data set.

Data set [4] concerns PLC/PRF/5 hepatocellular carcinoma (HCC) xenograft. Put plainly: Tumor growth inhibition in PLC/PRF/5 HCC xenograft. The note with it: HCC: PLC/PRF/5; Sorafenib 20 mpk QD×16; TH-302 50 mpk. It is filed as in vivo, SCID mice. The protocol: as §1
The next data set has as its system A375 melanoma xenograft. Put plainly: Tumor growth inhibition in A375 melanoma xenograft. The class given is in vivo, nude mice. The note with it: Sorafenib 20 mpk QD×16, TH-302 50 mpk begun on the same day as sorafenib. The protocol:
as §1

The subject of data set [5] is RCC. The note with it: cited from earlier work.
Data set [6] is described as follows: Maximum body weight loss in PLC/PRF/5 xenograft-bearing SCID mice. The note with it: HCC: PLC/PRF/5; Sorafenib 20 mpk; TH-302 50 mpk; vehicle 5.9. The procedure: as §1, §2
For data set [7], the system named is PLC/PRF/5 hepatocellular cancer xenograft tumor. Put plainly: Sorafenib-induced hypoxia in PLC/PRF/5 xenograft tumors. The following applies: vehicle 4.3±0.4%.
Procedure: The hypoxia level in another cancer, hepatocellular cancer PLC/PRF/5, after sorafenib administration was also measured. The measurement was carried out as above, except that sorafenib was administered at 20 or 40 mg/kg once daily for 8 days.
Data set [8] deals with H460 human non-small cell lung cancer (NSCLC) xenograft. Put plainly: Tumor growth inhibition in H460 NSCLC xenograft. The class given is in vivo, nude mice. The protocol:
as §1, §2

Data set [9] deals with 786-O RCC xenograft tumors. Description: Antiangiogenic-induced hypoxia in 786-O xenograft tumors (pimonidazole / Hoechst 33342, morphometric analysis). The note with it: for tumor hypoxia volume: vehicle 0.8±0.2%; for hypoxic fraction in the 786-O xenograft tumor: morphometric analysis, vehicle 1.4±0.9%. The class given is in vivo, nude mice. The procedure:
To measure the extent of tumor hypoxia and to illustrate methods for increasing the hypoxic fraction of a tumor with an antiangiogenic agent, so as to render the tumor more susceptible to treatment with a hypoxia activated prodrug, nude mice bearing 786-O RCC xenograft tumors were randomized into 3 groups, vehicle (8 mice), sunitinib (Sutent, Pfizer) 20 mg/kg and 40 mg/kg, QDx5, oral, respectively (6 mice each). Seventy one hours after the last sunitinib administration, pimonidazole was administered. Hoechst 33342 was administered 1 hour after administering pimonidazole. About a minute after administering the Hoechst 33342, the animals were sacrificed and tissues harvested.
Sorafenib 20 mpk (mgs per kilogram) and 40 mpk were orally administered once daily for 7 days. Pimonidazole was administered 3 h after the last sorafenib administration. Hoechst 33342 was administered 1 h after administering pimonidazole. About a minute after administering the Hoechst 33342, the animals were sacrificed and tissues harvested.

The test system of data set [10] is H460 non small cell lung cancer (NSCLC) xenograft tumors. Description: Sunitinib-induced hypoxia in H460 xenograft tumors (pimonidazole / Hoechst 33342, morphometrics). The note with it: sunitinib 40 mg/kg QDx5 intraperitoneally; vehicle 7.3±3.8%; p<0.05. It is filed as in vivo, nude mice.
Procedure: To measure the extent of tumor hypoxia and to illustrate methods for increasing the hypoxic fraction of a tumor with an antiangiogenic agent, so as to render the tumor more susceptible to treatment with a hypoxia activated prodrug, nude mice bearing H460 non small cell lung cancer (NSCLC) xenograft tumors were intraperitoneally administered sunitinib with the dose of 20 mg/kg and 40 mg/kg. QDx5, respectively (5 mice each), and compared with vehicle treated animals (5 mice). […] The percent hypoxic fraction in the harvested tissue was analyzed by morphometrics.
A further data set relates to breast cancer. The note with it: cited from earlier work.
The subject of data set [11] is RCC. The note with it: cited from earlier work. The source holds these as a separate data set.
The subject of data set [12] is metastatic renal cell carcinoma (mRCC). The following applies: cited from earlier work.
[13] abbreviates: Melanoma: A375, Sorafenib 20 mpk, TH-302 50 mpk.
The mark [14] stands for this setting: NSCLC: H460, Sorafenib 20 mpk, TH-302 50 mpk.
[15] abbreviates: RCC: 786-O, Sorafenib 30 mpk, TH-302 50 mpk.
Setting [16] is: NSCLC: H460, Sorafenib 20 mpk QD×16, TH-302 50 mpk.
Setting [17] is: RCC: 786-O, Sorafenib 30 mpk QD×14, TH-302 50 mpk QDx5/week for two weeks.
Where [18] appears, read: H460, Sunitinib 5 wks + TH-302 4 wks, sunitinib 40 mpk, alone or with TH-302.
The mark [19] stands for this setting: H460, Sunitinib 5 wks + TH-302 4 wks, sunitinib 80 mpk, alone or with TH-302.
[20] abbreviates: H460, Sunitinib 3 wks + TH-302 2 wks study, TH-302 50 mpk monotherapy.
Setting [21] is: H460, Sunitinib 5 wks + TH-302 4 wks study, TH-302 50 mpk monotherapy.

The source of these data is US20190060275A1, “Administration of hypoxia activated prodrugs and antiangiogenic agents for the treatment of cancer” (Molecular Templates, Inc., priority 2010, published 2019).

Like-named read-outs stand apart in the source and are kept apart here. Marks after values point to notes of the source that are not given here.

Consider `CO[C@H]1C[C@@H]2CC[C@@H](C)[C@@](O)(O2)C(=O)C(=O)N2CCCC[C@H]2C(=O)O[C@H]([C@H](C)C[C@@H]2CC[C@@H](OCCO)[C@H](OC)C2)CC(=O)[C@H](C)/C=C(\C)[C@@H](O)[C@@H](OC)C(=O)[C@H](C)C[C@H](C)/C=C/C=C/C=C/1C` [Everolimus, everolimus], for which the “Max. BW loss (%)” value in [1] (786-O RCC, Everolimus 5 mpk monotherapy) was 0%. Also, the “TGI (%)” value in [2] (Everolimus 5 mpk QD×19 monotherapy) is on record as 48.8* %. In addition, in data set [3] (786-O RCC, TH-302 50 mgs per kg QD×19 or 12 days from Day 8, everolimus QD×19), the TGI entry is listed as “less than 50%”.
With `CNC(=O)c1cc(Oc2ccc(NC(=O)Nc3ccc(Cl)c(C(F)(F)F)c3)cc2)ccn1` [Sorafenib, sorafenib], the “Max. BW loss (%)” value in [1] (setting [13]) turned out to be 3.1%; in [1] (setting [14]) it was 4.8%; in [1] (setting [15]), 0.4%; in [6], 5.6%. Besides, the “TGI (%)” value was 56 * % in [4], 67 * % with A375 melanoma xenograft, 74 * % in data set [8] (setting [16]) and 38 * % in data set [3] (setting [17]). Moreover, in the data set on RCC [5] (placebo 12 weeks), the “median PFS” value is given as 24 weeks. Also, the OS in the data set on RCC [5] (placebo 14.3 months) is recorded as 17.8 months. Further, the tumor hypoxia volume is listed as 6.5±0.6% in data set [7] (sorafenib 20 mg/kg once daily for 8 days, p<0.05 vs. vehicle); 9.3±0.7% in [7] (sorafenib 40 mg/kg once daily for 8 days, p<0.001 vs. vehicle); 3.5±1.6% in [9] (sorafenib 20 mg/kg orally once daily for 7 days); 10±2.5% in data set [9] (sorafenib 40 mg/kg orally once daily for 7 days, p<0.05 vs. vehicle).
Turning to `CCN(CC)CCNC(=O)c1c(C)[nH]c(/C=C2\C(=O)Nc3ccc(F)cc32)c1C` [Sunitinib, sunitinib], the “Max. BW loss (%)” value in data set [1] (786-O study, sunitinib 20 mpk, alone or with TH-302) turned out to be 0%; in data set [1] (786-O study, sunitinib 40 mpk, alone or with TH-302), 0%; in [1] (H460, Sunitinib 3 wks + TH-302 2 wks, sunitinib 40 mpk, alone or with TH-302), 0%; in data set [1] (H460, Sunitinib 3 wks + TH-302 2 wks, sunitinib 80 mpk, alone or with TH-302), 0%; in [1] (setting [18]), 0.1%; in data set [1] (setting [19]) it was 0.5%. Besides, the “TGI (%)” value is recorded as 72.9* % in data set [8] (H460, Sunitinib 3 wks + TH-302 2 wks, sunitinib 40 mpk, alone or with TH-302 50 mg/kg); 77.7* % in [8] (H460, Sunitinib 3 wks + TH-302 2 wks, sunitinib 80 mpk, alone or with TH-302 50 mg/kg); 78% in data set [8] (H460, Sunitinib 3 wks + TH-302 2 wks, sunitinib 80 mpk, alone or with TH-302 50 mg/kg, listed as sunitinib); 83* % in data set [8] (setting [18]); 96* % in data set [8] (setting [19]); 16.2% in data set [3] (786-O, sunitinib 20 mpk p.o. QDx21, alone or with TH-302 50 mg/kg begun one week later). Moreover, the “TGI (%)” value was found to be 37.9% in [3] (786-O, sunitinib 40 mpk p.o. QDx21, alone or with TH-302 50 mg/kg begun one week later) and 38% in data set [3] (786-O, sunitinib 40 mpk p.o. QDx21, alone or with TH-302 50 mg/kg begun one week later, listed as sunitinib). The “tumor hypoxia volume (percent hypoxic fraction)” value in data set [10] was 24±3.2%. The “hypoxic fraction in the 786-O xenograft tumor” value in data set [9] (sunitinib 20 mg/kg QDx5 oral) worked out at 1.6±0.9%; in data set [9] (sunitinib 40 mg/kg QDx5 oral), 17.2±0.9%.
Turning to `Cn1c(COP(=O)(NCCBr)NCCBr)cnc1[N+](=O)[O-]` [TH-302], the “Max. BW loss (%)” value in [1] (786-O RCC, TH-302 50 mpk from Day 1, alone or with Everolimus 5 mpk) worked out at 0.2%; in [1] (786-O RCC, TH-302 50 mpk from Day 8, alone or with Everolimus 5 mpk) it was 0%; in data set [1] (786-O study, TH-302 50 mpk monotherapy), 0.1%; in data set [1] (setting [20]), 7.1%; in data set [1] (setting [21]) it was 0.6%; in data set [1] (setting [13]), 1.8%. The “Max. BW loss (%)” value in data set [1] (setting [14]) is 4.8%; in data set [1] (setting [15]), 0%; in [6] it was 6.3%. In addition, the “TGI (%)” value is given as 15% in [4]; 46 * % with A375 melanoma xenograft; 15.7% in data set [2] (TH-302 50 mpk from Day 1 (QD×19), alone or with Everolimus 5 mpk QD×19); 14.2% in [2] (TH-302 50 mpk from Day 8 (12 days), alone or with Everolimus 5 mpk QD×19); 67.6* % in data set [8] (setting [20]); 81* % in data set [8] (setting [21]). The “TGI (%)” value in data set [8] (setting [16]) was 78 * %; in data set [3] (786-O, TH-302 50 mpk i.p. QDx5 for 2 weeks, monotherapy), 9.9%; in [3] (setting [17]), 15%. In data set [2] (TH-302 50 mgs per kg QD×19 or 12 days from Day 8, everolimus QD×19), this compound showed a TGI of 16%.
As to `CC(=O)O[C@H]1C(=O)[C@@]2(C)[C@H]([C@H](OC(=O)c3ccccc3)[C@]3(O)C[C@H](OC(=O)[C@H](O)[C@@H](NC(=O)c4ccccc4)c4ccccc4)C(C)=C1C3(C)C)[C@]1(OC(C)=O)CO[C@@H]1C[C@@H]2O` [paclitaxel], in the data set on breast cancer, the OS is on record as 26.5 months and the “median PFS” value is 5.8 months.
With IFN-α, in the data set on RCC [11], the OS is listed as 21.8 months and the “median PFS” value is on record as 5 months. In data set [12], the OS was 23 months and the “median PFS” value is 5.4 months.
